In the assay the target is T1, Human D1 Receptor (Homo sapiens, UniProt P21728).
T1 construct: expressed in transfected cells; host or cells: LTK cell line over-expressing the D1 receptor
The assay is described as follows: Human D1 Receptor Binding Assay ([3H]-SCH23390 competition binding). The following applies: over-expressing LTK human cell lines; 0.5 nM [3H]-SCH23390; 30 min at 37° C.; footnote a = geometric mean of ≧5 determinations, footnote b = single determination; read-out: Human D1 Receptor Binding, Ki (nM); Geometric mean of 2-4 determinations (unless otherwise indicated). On the procedure:
The affinity of the compounds described herein was determined by competition binding assays similar to those described in Ryman-Rasmussen et al., “Differential activation of adenylate cyclase and receptor internalization by novel dopamine D1 receptor agonists”, Molecular Pharmacology 68(4):1039-1048 (2005).
D1 binding assays were performed using over-expressing LTK human cell lines. […] These ligand and tissue concentrations were used in time course studies to determine linearity and equilibrium conditions for binding. Binding was at equilibrium with the specified amount of tissue in 30 minutes at 37° C. […] The pellet was resuspended in assay buffer [50 mM Tris (pH 7.4@RT) containing 4 mM MgSO4 and 0.5 mM EDTA]. […] Non-specific binding was determined by radioligand binding in the presence of a saturating concentration of (+)-Butaclamol (10 μM), a D1 antagonist. After a 30 minute incubation period at 37° C., assay samples were rapidly filtered through Unifilter-96 GF/B PEI-coated filter plates and rinsed with 50 mM Tris buffer (pH 7.4 at 4° C.). […] The IC50 value (concentration at which 50% inhibition of specific binding occurs) was calculated by linear regression of the concentration-response data in Microsoft Excel. Ki values were calculated according to the Cheng-Prusoff equation: […]

SMILES strings stand for the structures. Counter-ions that a name gives are not always drawn.

From patent publication US9688698B2, “Heteroaromatic compounds and their use as dopamine D1 ligands” (PFIZER INC., priority 2014, dated 2017) come the findings set out here.

T1 sequence (P21728 whole entry): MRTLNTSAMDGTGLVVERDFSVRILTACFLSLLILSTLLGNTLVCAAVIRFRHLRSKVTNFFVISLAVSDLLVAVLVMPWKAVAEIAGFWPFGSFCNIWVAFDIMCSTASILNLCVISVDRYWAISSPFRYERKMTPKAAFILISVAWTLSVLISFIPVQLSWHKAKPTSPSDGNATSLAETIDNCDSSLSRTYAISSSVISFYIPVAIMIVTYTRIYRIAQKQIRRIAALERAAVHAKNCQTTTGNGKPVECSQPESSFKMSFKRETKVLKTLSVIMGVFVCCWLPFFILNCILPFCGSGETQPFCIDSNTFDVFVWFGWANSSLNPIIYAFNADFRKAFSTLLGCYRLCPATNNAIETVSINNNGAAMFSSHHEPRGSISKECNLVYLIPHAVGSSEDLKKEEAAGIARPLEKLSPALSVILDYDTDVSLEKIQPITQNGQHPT

In the case of `Cc1cc(Oc2ncnc3ccsc23)ccc1-c1c(C)c(=O)[nH]c(=O)n1C` (single isomer, unassigned) [Example 1, (+)-1,5-dimethyl-6-[2-methyl-4-(thieno[3,2-d]pyrimidin-4-yloxy)phenyl]pyrimidine-2,4(1H,3H)-dione], the Ki amounted to 4.1 nM.
Next, `Cc1cc(Oc2ncnc3ccsc23)ccc1-c1c(C)c(=O)[nH]c(=O)n1C` (single isomer, unassigned) [Example 2, (−)-1,5-dimethyl-6-[2-methyl-4-(thieno[3,2-d]pyrimidin-4-yloxy)phenyl]pyrimidine-2,4(1H,3H)-dione]: 1.8 nM; `Cc1cc(Oc2nccc3ncsc23)ccc1-c1c(C)ncc(=O)n1C` (single isomer, unassigned) [Example 29, (−)-1,5-dimethyl-6-[2-methyl-4-([1,3]thiazolo[5,4-c]pyridin-4-yloxy)phenyl]pyrazin-2(1H)-one]: 40.6 nM; `Cc1cc(Oc2nccc3ncsc23)ccc1-c1c(C)ncc(=O)n1C` (single isomer, unassigned) [Example 30, (+)-1,5-dimethyl-6-[2-methyl-4-([1,3]thiazolo[5,4-c]pyridin-4-yloxy)phenyl]pyrazin-2(1H)-one]: 116 nM.
As for `Cc1cc(Oc2nccc3ncsc23)ccc1-c1c(C)cnnc1C` (single isomer, unassigned) [Example 64, (+)-4-[4-(3,5-dimethylpyridazin-4-yl)-3-methylphenoxy][1,3]thiazolo[5,4-c]pyridine], the figure is 32.3 nM; as for `Cc1cc(Oc2nccc3ncsc23)ccc1-c1c(C)cnnc1C` (single isomer, unassigned) [Example 65, (−)-4-[4-(3,5-dimethylpyridazin-4-yl)-3-methylphenoxy][1,3]thiazolo[5,4-c]pyridine], 223 nM.
Next, `Cc1cc(Oc2nccc3ccsc23)ccc1-c1c(C)ncnc1C#N` (single isomer, unassigned; ent-1) [Example 45, 6-methyl-5-[2-methyl-4-(thieno[2,3-c]pyridin-7-yloxy)phenyl]pyrimidine-4-carbonitrile, ENT-1]: 14.3 nM; `Cc1cc(Oc2nccc3ncsc23)ccc1-c1c(C)ncc2nccn12` (single isomer, unassigned; ent-1) [Example 61, 4-[3-methyl-4-(6-methylimidazo[1,2-a]pyrazin-5-yl)phenoxy][1,3]thiazolo[5,4-c]pyridine, ENT-1]: 151 nM; `Cc1cc(Oc2nccc3ccsc23)ccc1-c1c(C)ncnc1C#N` (single isomer, unassigned; ent-2) [Example 46, 6-methyl-5-[2-methyl-4-(thieno[2,3-c]pyridin-7-yloxy)phenyl]pyrimidine-4-carbonitrile, ENT-2]: 15.1 nM.
Take `Cc1cc(Oc2nccc3ncsc23)ccc1-c1c(C)ncc2nccn12` (single isomer, unassigned; ent-2) [Example 62, 4-[3-methyl-4-(6-methylimidazo[1,2-a]pyrazin-5-yl)phenoxy][1,3]thiazolo[5,4-c]pyridine, ENT-2]: the Ki was 239 nM.
As for `Cc1cc(Oc2nccc3cnsc23)ccc1-c1c(C)n[nH]c(=O)c1C` [Example 3, 4,6-dimethyl-5-[2-methyl-4-([1,2]thiazolo[5,4-c]pyridin-7-yloxy)phenyl]pyridazin-3(2H)-one], the figure is 10.9 nM; as for `Cc1cc(Oc2ncnc3ccsc23)ccc1-c1cn[nH]c(=O)c1C` [Example 4, 4-methyl-5-[2-methyl-4-(thieno[3,2-d]pyrimidin-4-yloxy)phenyl]pyridazin-3(2H)-one], 68.4 nM.
In the case of `Cc1cc(Oc2nccc3ccsc23)ccc1-c1c(C)ncc(=O)n1C` [Example 5, 1,5-dimethyl-6-[2-methyl-4-(thieno[2,3-c]pyridin-7-yloxy)phenyl]pyrazin-2(1H)-one], the Ki stood at 1.6 nM.
Next, `Cc1cc(Oc2nccc3ccsc23)ccc1-c1c(C)ncnc1C` [Example 6, 7-[4-(4,6-dimethylpyrimidin-5-yl)-3-methylphenoxy]thieno[2,3-c]pyridine]: 5.8 nM.
For `Cc1ncnc(C)c1-c1ccc(Oc2nccc3ncsc23)cc1C#N` [Example 7, 2-(4,6-dimethylpyrimidin-5-yl)-5-([1,3]thiazolo[5,4-c]pyridin-4-yloxy)benzonitrile], the Ki is 184 nM.
As for `Cc1cc(Oc2nccc3ccsc23)ccc1-n1c(C)nc2cnccc21` [Example 8, 2-methyl-1-[2-methyl-4-(thieno[2,3-c]pyridin-7-yloxy)phenyl]-1H-imidazo[4,5-c]pyridine], the figure is 13.1 nM; as for `Cc1cc(Oc2nccc3ccoc23)ccc1-c1c(C)ncc2nccn12` [Example 9, 5-[4-(furo[2,3-c]pyridin-7-yloxy)-2-methylphenyl]-6-methylimidazo[1,2-a]pyrazine], 57.2 nM.
Next, `COc1cc(Oc2nccc3ccsc23)ccc1-c1nccnc1C` [Example 10, 7-[3-methoxy-4-(3-methylpyrazin-2-yl)phenoxy]thieno[2,3-c]pyridine]: 44.9 nM; `Cc1cc(Oc2nccc3ccoc23)ccc1-c1c(C)ncnc1C` [Example 11, 7-[4-(4,6-dimethylpyrimidin-5-yl)-3-methylphenoxy]furo[2,3-c]pyridine]: 57.8 nM.
For the compound `Cc1cc(Oc2nccc3cc[nH]c23)ccc1-c1c(C)ncnc1C` [Example 12, 7-[4-(4,6-dimethylpyrimidin-5-yl)-3-methylphenoxy]-1H-pyrrolo[2,3-c]pyridine], the Ki was determined as 403 nM.
For the compound `Cc1ncnc(C#N)c1-c1ccc(Oc2nccc3ccsc23)cc1F` [Example 13, 5-[2-fluoro-4-(thieno[2,3-c]pyridin-7-yloxy)phenyl]-6-methylpyrimidine-4-carbonitrile], the Ki was 34.5 nM.
As for `Cc1cc(Oc2nccc3ccsc23)ccc1-c1c(C)cnnc1C` [Example 14, 7-[4-(3,5-dimethylpyridazin-4-yl)-3-methylphenoxy]thieno[2,3-c]pyridine], the figure is 3.3 nM; as for `Cc1cc(Oc2ncnc3ccsc23)ccc1-c1c(C)ncc(=O)n1C` [Example 15, 1,5-dimethyl-6-[2-methyl-4-(thieno[3,2-d]pyrimidin-4-yloxy)phenyl]pyrazin-2(1H)-one], 34.5 nM.
As to `Cc1cc(Oc2nccc3ncsc23)ccc1-c1c(C)ncc(=O)n1C` [Example 16, 1,5-dimethyl-6-[2-methyl-4-([1,3]thiazolo[5,4-c]pyridin-4-yloxy)phenyl]pyrazin-2(1H)-one], the Ki came to 82.8 nM.
For the compound `Cc1ncnc(C)c1-c1ccc(Oc2ncnc3ccsc23)cc1Cl` [Example 17, 4-[3-chloro-4-(4,6-dimethylpyrimidin-5-yl)phenoxy]thieno[3,2-d]pyrimidine], the Ki is 25.4 nM.
As for `Cc1cc(Oc2ncnc3ccsc23)c(F)cc1-c1c(C)ncnc1C` [Example 18, 4-[4-(4,6-dimethylpyrimidin-5-yl)-2-fluoro-5-methylphenoxy]thieno[3,2-d]pyrimidine], the figure is 34.5 nM.
On to `Cc1ncnc(C)c1-c1ccc(Oc2ncnc3ccsc23)c(F)c1` [Example 19, 4-[4-(4,6-dimethylpyrimidin-5-yl)-2-fluorophenoxy]thieno[3,2-d]pyrimidine], for which the Ki was found to be 117 nM.
For the compound `Cc1ncnc(C)c1-c1ccc(Oc2ncnc3ccsc23)c(F)c1C` [Example 20, 4-[4-(4,6-dimethylpyrimidin-5-yl)-2-fluoro-3-methylphenoxy]thieno[3,2-d]pyrimidine], the Ki was determined as 121 nM.
With `Cc1ncnc(C)c1-c1cc(F)c(Oc2ncnc3ccsc23)cc1F` [Example 21, 4-[4-(4,6-dimethylpyrimidin-5-yl)-2,5-difluorophenoxy]thieno[3,2-d]pyrimidine], the Ki worked out at 62.4 nM.
Next, `Cc1ncnc(C)c1-c1ccc(Oc2ncnc3ccsc23)cc1` [Example 22, 4-[4-(4,6-dimethylpyrimidin-5-yl)phenoxy]thieno[3,2-d]pyrimidine]: 146 nM.
Regarding `COc1cc(Oc2ncnc3ccsc23)ccc1-c1c(C)ncnc1C` [Example 23, 4-[4-(4,6-dimethylpyrimidin-5-yl)-3-methoxyphenoxy]thieno[3,2-d]pyrimidine], the Ki worked out at 178 nM.
As to `Cc1ncnc(C)c1-c1ccc(Oc2ncnc3ccsc23)cc1F` [Example 24, 4-[4-(4,6-dimethylpyrimidin-5-yl)-3-fluorophenoxy]thieno[3,2-d]pyrimidine, trifluoroacetate salt], the Ki stood at 531 nM.
`Cc1cc(Oc2nccc3cn[nH]c23)ccc1-c1c(C)n[nH]c(=O)c1C` [Example 25, 4,6-dimethyl-5-[2-methyl-4-(1H-pyrazolo[3,4-c]pyridin-7-yloxy)phenyl]pyridazin-3(2H)-one]: the Ki turned out to be 120 nM.
With `Cc1cc(Oc2nccc3ncsc23)ccc1-c1c(C)n[nH]c(=O)c1C` [Example 26, 4,6-dimethyl-5-[2-methyl-4-([1,3]thiazolo[5,4-c]pyridin-4-yloxy)phenyl]pyridazin-3(2H)-one], the Ki was determined as 12.2 nM.
On to `Cc1cc(Oc2nccc3ncsc23)ccc1-c1cn[nH]c(=O)c1C` [Example 27, 4-methyl-5-[2-methyl-4-([1,3]thiazolo[5,4-c]pyridin-4-yloxy)phenyl]pyridazin-3(2H)-one], for which the Ki turned out to be 186 nM.
